From patent US9636368B2, “Strain of Lactobacillus rhamnosus and its metabolites for use in inhibiting xanthine oxidase and treating gout” (Food Industry Research and Development Institute, priority 2014, dated 2017)

Tested on: uric acid in the serum of the mice
Experiment: Treatment of experimental uricemia: potassium oxonate-induced high serum uric acid in ICR mice
Assay type: in vivo
Details: potassium oxonate (400 mg/kg) + allopurinol 10 mg/kg, fed via feeding tube, sacrificed after one hour, oxonate alone 4.91 ± 0.08, saline control 3.51 ± 0.02
Method: Lactobacillus rhamnosus I21 was inoculated on an MRS plate and cultured at 37° C. for 3 days. Bacteria were scraped from the plate using a 1 μl sterile inoculation loop, inoculated into MRS broth, and grown at 37° C. for 1 day to prepare an inoculum. The inoculum (30 ml) was then added into 3 L MRS broth in a 5 L fermenter and grown at 37° C. for 2 days. The fermentation broth was centrifuged at 3000 rpm for 15 min. The supernatant was collected and lyophilized to produce the Lactobacillus rhamnosus I21 fermentation product.
ICR mice were used as experimental animals. Potassium oxonate, a uricase inhibitor, was used to induce a high level of uric acid in the serum of the mice. Mice were fasted for one hour and then fed saline or potassium oxonate (400 mg/kg) via a feeding tube. After one hour, potassium oxonate-treated mice were fed saline, allopurinol (10 mg/kg), or a Lactobacillus rhamnosus I21 fermentation product (150 mg or 200 mg resuspended in saline per mouse) prepared as described above. Ten animals were used for each experimental group and for the control group. The animals were sacrificed after one hour and the level of uric acid in their serum was analyzed.

With `Oc1ncnc2[nH]ncc12` [allopurinol] the “serum uric acid concentration” value was 2.82 ± 0.28 mg/dL.
